Laboratory results published in ChEMBL document CHEMBL1201862, “PubChem BioAssay data set” (2004).
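Interpolation was linear, between the two tested concentrations surrounding the appropriate level; five concentrations were tested over 48 hours in 96-well plates. GI50 = concentration required for 50% inhibition of growth.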 The source made the active and inactive calls. Cut-off read from the data, not from the text of the source: active = GI50 up to about 1.1 µM and inactive = higher.

What was measured:
Experiment in all cases: NCI tumour cell line growth inhibition, 48 h
M14 = tested on: M14
OVCAR-3 = tested on: OVCAR-3
A498 = tested on: A498
CAKI-1 = tested on: CAKI-1
SK-MEL-5 = tested on: SK-MEL-5
Hs-578T = tested on: Hs-578T
U-251 = tested on: U-251
A549 = tested on: A549
SK-OV-3 = tested on: SK-OV-3
HCC 2998 = tested on: HCC 2998
OVCAR-4 = tested on: OVCAR-4
HCT-15 = tested on: HCT-15
SF-539 = tested on: SF-539
HL-60 = tested on: HL-60
SK-MEL-28 = tested on: SK-MEL-28
EKVX = tested on: EKVX
MDA-N = tested on: MDA-N
HOP-92 = tested on: HOP-92

Row | SMILES | GI50 (M14) | GI50 (OVCAR-3) | GI50 (A498) | GI50 (CAKI-1) | GI50 (SK-MEL-5) | GI50 (Hs-578T) | GI50 (U-251) | GI50 (A549) | GI50 (SK-OV-3) | GI50 (HCC 2998) | GI50 (OVCAR-4) | GI50 (HCT-15) | GI50 (SF-539) | GI50 (HL-60) | GI50 (SK-MEL-28) | GI50 (EKVX) | GI50 (MDA-N) | GI50 (HOP-92)
1 | CC(C)(C)OC[C@H](O)CC#N | > 100 µM (inactive) | > 100 µM (inactive) | > 100 µM (inactive) | > 100 µM (inactive) | > 100 µM (inactive) | > 100 µM (inactive) | > 100 µM (inactive) | > 100 µM (inactive) | > 100 µM (inactive) | > 100 µM (inactive) | > 100 µM (inactive) | > 100 µM | > 100 µM (inactive) | > 100 µM (inactive) | > 100 µM (inactive) | > 100 µM (inactive) | > 100 µM (inactive) | –
2 | NC(=O)c1nnsc1N/N=C/c1ccc([N+](=O)[O-])cc1 | > 100 µM (inactive) | 55.2 µM (inactive) | > 100 µM (inactive) | > 100 µM (inactive) | > 100 µM (inactive) | > 100 µM (inactive) | > 100 µM (inactive) | > 100 µM (inactive) | > 100 µM (inactive) | > 100 µM (inactive) | > 100 µM (inactive) | > 100 µM | > 100 µM (inactive) | 73.5 µM (inactive) | > 100 µM (inactive) | > 100 µM (inactive) | > 100 µM (inactive) | –
3 | Oc1ccc2c(c1)-c1c(c3cc(O)ccc3n1CCN1CCOCC1)CC2 | 19.5 µM (inactive) | 20.7 µM (inactive) | 21 µM (inactive) | 24.9 µM (inactive) | 16.6 µM (inactive) | 27 µM (inactive) | 19.7 µM (inactive) | 28.4 µM (inactive) | 23.9 µM (inactive) | 16.9 µM (inactive) | 25.4 µM (inactive) | 19.2 µM | 22.6 µM (inactive) | 23.2 µM (inactive) | 18.5 µM (inactive) | 30.8 µM (inactive) | – | 26.1 µM (inactive)
4 | O=C(Nc1ccccc1)Oc1ccc(C(=S)Nc2ccc(Br)cc2)cc1 | – | 18.9 µM (inactive) | 19.1 µM (inactive) | 15.3 µM (inactive) | 16 µM (inactive) | 22.9 µM (inactive) | 19.5 µM (inactive) | – | 34.5 µM (inactive) | 21.6 µM (inactive) | 14.3 µM (inactive) | 16.2 µM | 18.6 µM (inactive) | 8.13 µM (inactive) | 19.4 µM (inactive) | 5.13 µM (inactive) | 18.9 µM (inactive) | –
5 | O=C(Nc1ccccc1)Nn1c(-c2cccs2)nc2ccc(I)cc2c1=O | 35.9 µM (inactive) | 11 µM (inactive) | – | 23.8 µM (inactive) | 17.1 µM (inactive) | – | 23.9 µM (inactive) | 19.2 µM (inactive) | 20.9 µM (inactive) | 25.8 µM (inactive) | 16.9 µM (inactive) | 31.5 µM | 33.7 µM (inactive) | 1.41 µM (inactive) | 20.5 µM (inactive) | 20.9 µM (inactive) | 23.2 µM (inactive) | 6.3 µM (inactive)
6 | CC1=[N+]([O-])C(C)(C)N(O)C1(C)C | > 100 µM (inactive) | > 100 µM (inactive) | > 100 µM (inactive) | – | > 100 µM (inactive) | – | > 100 µM (inactive) | > 100 µM (inactive) | > 100 µM (inactive) | > 100 µM (inactive) | > 100 µM (inactive) | > 100 µM | > 100 µM (inactive) | > 100 µM (inactive) | > 100 µM (inactive) | > 100 µM (inactive) | > 100 µM (inactive) | > 100 µM (inactive)
7 | Cn1c(-c2ccc(C=O)o2)ccc1-c1ccc(C=O)o1 | 31 µM (inactive) | 26.2 µM (inactive) | > 100 µM (inactive) | 12.5 µM (inactive) | 30.9 µM (inactive) | – | 40.7 µM (inactive) | > 100 µM (inactive) | > 100 µM (inactive) | > 100 µM (inactive) | 53.1 µM (inactive) | 34 µM | 34.5 µM (inactive) | 19.8 µM (inactive) | 40.1 µM (inactive) | 54.1 µM (inactive) | 33.4 µM (inactive) | 36.6 µM (inactive)
8 | CC(C)(C)OC(=O)NCC(=O)N1CCN(C(=O)CNC(=O)OC(C)(C)C)CC1 | > 100 µM (inactive) | > 100 µM (inactive) | > 100 µM (inactive) | > 100 µM (inactive) | > 100 µM (inactive) | – | > 100 µM (inactive) | > 100 µM (inactive) | > 100 µM (inactive) | > 100 µM (inactive) | > 100 µM (inactive) | > 100 µM | > 100 µM (inactive) | > 100 µM (inactive) | > 100 µM (inactive) | > 100 µM (inactive) | > 100 µM (inactive) | > 100 µM (inactive)
9 | COC(=O)/C=C1/SC(/C(=C(/[O-])OC)[n+]2ccc3ccccc3c2)=NC1=O | > 100 µM (inactive) | – | > 100 µM (inactive) | > 100 µM (inactive) | > 100 µM (inactive) | 25.4 µM (inactive) | 67.5 µM (inactive) | > 100 µM (inactive) | > 100 µM (inactive) | – | – | – | 23 µM (inactive) | > 100 µM (inactive) | > 100 µM (inactive) | > 100 µM (inactive) | > 100 µM (inactive) | –
10 | COc1ccc2nc3ccc(OC)cc3c(S(=O)(=O)Cc3ccc([N+](=O)[O-])cc3)c2c1 | > 100 µM (inactive) | > 100 µM (inactive) | > 100 µM (inactive) | > 100 µM (inactive) | – | – | > 100 µM (inactive) | > 100 µM (inactive) | > 100 µM (inactive) | > 100 µM (inactive) | > 100 µM (inactive) | > 100 µM | > 100 µM (inactive) | > 100 µM (inactive) | > 100 µM (inactive) | > 100 µM (inactive) | > 100 µM (inactive) | > 100 µM (inactive)
11 | NC1=NNC2(C(N)=N1)c1ccccc1-c1ccccc12 | > 10 µM (inactive) | – | – | > 10 µM (inactive) | > 10 µM (inactive) | > 10 µM (inactive) | – | > 10 µM (inactive) | > 10 µM (inactive) | > 10 µM (inactive) | > 10 µM (inactive) | > 10 µM | > 10 µM (inactive) | > 10 µM (inactive) | > 10 µM (inactive) | > 10 µM (inactive) | – | > 10 µM (inactive)
12 | CC(=O)N1N=C(c2ccccc2Nc2ccccc2C2=NN(C(C)=O)C(c3ccccc3)O2)OC1c1ccccc1 (stereo unspecified) | 56.1 µM (inactive) | > 100 µM (inactive) | – | – | 51.2 µM (inactive) | – | 63.5 µM (inactive) | 17.4 µM (inactive) | 30.3 µM (inactive) | > 100 µM (inactive) | 29.8 µM (inactive) | 44.8 µM | – | – | > 100 µM (inactive) | 45.4 µM (inactive) | 29 µM (inactive) | 93.8 µM (inactive)
13 | CCc1n[nH]c(=O)[nH]1 | > 100 µM (inactive) | > 100 µM (inactive) | – | > 100 µM (inactive) | > 100 µM (inactive) | > 100 µM (inactive) | – | > 100 µM (inactive) | > 100 µM (inactive) | > 100 µM (inactive) | – | > 100 µM | > 100 µM (inactive) | > 10 µM (inactive) | – | > 100 µM (inactive) | > 100 µM (inactive) | –
